Where two headings read alike, the source gives them in different places.
Tests used:
[1] = test system: ZIKV human strain PAN2016 (2016/Panama); experiment: Plaque assay, inhibition of ZIKV infection (strain PAN2016); conditions: for SI (CC50/IC50): CC50 Vero E6 / IC50 ZIKV PAN2016
Description: (§1) After removal of the unbound compounds by centrifugation (after addition of 3% PEG-6000), ZIKV was incubated with Vero E6 cells in 24-well plates at 37°C for 1 h. The cells were then washed with PBS, overlaid with DMEM containing 1% carboxymethyl cellulose and 2% FBS, and cultured at 37°C for 4–5 days, followed by being stained with 0.5% crystal violet. […] Plaques in each well were calculated, and IC50 of compounds for each compound was calculated using the CalcuSyn computer program.

[2] = test system: ZIKV mosquito strain MEX 2-81; experiment: Plaque assay, inhibition of ZIKV infection (strain MEX 2-81); format: cell-based; conditions: Zika virus
Description: as §1

[3] = test system: ZIKV rhesus macaque strain MR 766; experiment: Plaque assay, inhibition of ZIKV infection (strain MR 766); format: cell-based; conditions: Zika virus
Description: as §1

[4] = test system: ZIKV human strain R116265; experiment: Plaque assay, inhibition of ZIKV infection (strain R116265); format: cell-based; conditions: Zika virus, Vero C1008, Vero E6 cells
Description: as §1

[5] = test system: ZIKV human strain PAN2015; experiment: Plaque assay, inhibition of ZIKV infection (strain PAN2015); format: cell-based; conditions: Zika virus, Vero C1008, Vero E6 cells
Description: as §1

ZIKV human strain FLR = experiment: Plaque assay, inhibition of ZIKV infection (strain FLR); format: cell-based; conditions: Zika virus
Description: as §1

[6] = test system: ZIKV human strain R103451; experiment: Plaque assay, inhibition of ZIKV infection (strain R103451); format: cell-based; conditions: Zika virus
Description: as §1

[7] = test system: ZIKV human strain PRVABC59; experiment: Plaque assay, inhibition of ZIKV infection (strain PRVABC59); format: cell-based; conditions: Zika virus
Description: as §1

[8] = test system: ZIKV human strain PLCal_ZV; experiment: Plaque assay, inhibition of ZIKV infection (strain PLCal_ZV); format: cell-based; conditions: Zika virus
Description: as §1

[9] = test system: ZIKV human strain IbH 30656; experiment: Plaque assay, inhibition of ZIKV infection (strain IbH 30656); format: cell-based; conditions: Zika virus
Description: as §1

[10] = test system: 8 human ZIKV strains (PAN2016, R116265, PAN2015, FLR, R103451, PRVABC59, PLCal_ZV, IbH 30656); experiment: microbe, parasite or virus in culture; format: cell-based; conditions: Zika virus, read-out: Average IC50 (human strains)
Description: as §1

[11] = Cytotoxicity, Cell Counting Kit-8, Vero E6 cells; format: cell-based; conditions: African green monkey
Description: (§2) Briefly, compounds at 2-fold serial dilutions were added to the respective cells (2.0×10^4/well) pre-seeded in 96-well plates. The cells were cultured at 37°C in the presence of 5% CO2 for 3 days, […] incubated with CCK8 solution, followed by measurement of absorbance at 450 nm (A450 value), using a microplate reader (Infinite F200PRO, Tecan, Morrisville, NC, USA). CC50 of compounds was calculated using the CalcuSyn program.

Vero E6 cells = experiment: Cytotoxicity, Cell Counting Kit-8, Vero E6 cells; format: cell-based; conditions: African green monkey, 3 days
Description: as §2

in vitro = format: cell-based; conditions: rhesus monkey
Description: as §2

DENV-1-V1792 = experiment: Plaque assay, inhibition of DENV-1 infection in LLC-MK2 cells; format: cell-based; conditions: Dengue virus, DENV1
DENV-2-V594 = experiment: Plaque assay, inhibition of DENV-2 infection in LLC-MK2 cells; format: cell-based; conditions: Dengue virus, DENV2
DENV-3-V1043 = experiment: Plaque assay, inhibition of DENV-3 infection in LLC-MK2 cells; format: cell-based; conditions: Dengue virus, DENV3
DENV-4-PR-06-65-740 = experiment: Plaque assay, inhibition of DENV-4 infection in LLC-MK2 cells; format: cell-based; conditions: Dengue virus, DENV4
[12] = test system: ZIKV human strain R103451; experiment: Lethal ZIKV challenge in adult Ifnar1−/− mice, survival and weight; format: in vivo; conditions: ZIKV R103451 200 PFU
Description: (§3) Briefly, 7–8-week-old male mice were used, and two separate experiments were performed. […] These mice were i.p. infected with ZIKV (human strain R103451, 200 PFU/mouse) and observed daily for weight changes and survival until 21 dpi. […] Five days later, these mice were sacrificed, and their tissues, including the heart, testis, eye, kidney, and brain, were collected for detection of viral titers by plaque assay, or apoptosis by immunofluorescence staining. Mice losing 20% of initial weight with severe symptoms, including hind limb weakness and paralysis, or 25% of initial weight, were humanely euthanized with an overdose isoflurane in a Bell Jar, followed by cervical dislocation.

[13] = test system: ZIKV human strain PAN2016; experiment: ZIKV challenge in adult Ifnar1−/− mice, tissue viral titers and immunofluorescence; format: in vivo; conditions: 20 mg/kg i.p.; ZIKV PAN2016 200 PFU; 5 dpi; compared to DMSO-treated mice
Description: as §3
Plaque assay was used to detect viral titers in ZIKV-infected tissues. Briefly, tissues were homogenized with cold culture medium (DMEM + 2% FBS) and then centrifuged (2000 g at 4°C for 10 min). Supernatants were serially diluted to infect Vero E6 cells in 24-well plates. ZIKV titers in tissues were measured from ~40 mg of samples; thus, the detection limit was about 25 PFU/g of tissues.
Immunofluorescence staining was carried out to detect ZIKV and caspase-3 signals in ZIKV-infected mouse tissues. Briefly, tissues were fixed in 4% formaldehyde, embedded in paraffin, and sectioned. The tissue sections were deparaffinized, fixed, and permed using the FIX and PERM Cell Permeabilization Kit (Thermo Fisher Scientific, Waltham, MA, USA). After blocking with 5% BSA, the tissue slides were incubated at 37°C 2 h with ZIKV EDIII-specific human mAb (ZV-67, 1:100, Absolute Antibody, Boston, MA, USA), or rabbit anti-active caspase-3 antibody (1:100, Abcam). The slides were washed with PBS and incubated for 30 min with anti-human FITC antibody (1:100, for ZIKV), or anti-rabbit Alexa Fluor 647 antibody (1:100, for caspase-3). The slides were then counterstained for nuclei, using DAPI (300 nM, Thermo Fisher Scientific, Waltham, MA, USA) for 5 min, and mounted in VectaMount Permanent Mounting Medium (Vector Laboratories, CA, USA). The slides were analyzed using a confocal microscope (Zeiss LSM 880) and ZEN software, and fluorescent signals were quantified by ImageJ software.

DENV-2 human strain V594 = experiment: DENV-2 challenge in Ifnar1−/− mice, flow cytometry titers; format: in vivo; conditions: C6/36 cells, flow cytometry, 3 dpi, 20 mg/kg i.p., representative image
Description: Three days after infection, sera and tissues, including the brain, kidney, and heart, were collected and assessed for DENV infection using a flow cytometry assay, as described below. Tissues were freshly homogenized with cold culture medium (EMEM + 2% FBS) and centrifuged at 4°C and 2000 g for 10 min. Serially diluted tissue supernatants and sera were added to C6/36 cells, as described below. DENV titers in tissues or sera were assessed from ~20 mg of tissue samples, or 25 μl of sera, and used for subsequent flow cytometry analysis.
Flow cytometry assay was carried out to analyze DENV-2 titers in the supernatants of homogenized tissues and sera from DENV-2-infected mice collected above. Briefly, homogenized tissue supernatants or sera were added to C6/36 cells (5×10^5 cells/well) pre-seeded in 24-well plates which the culture medium was removed, and the cells were incubated for 1 h (28°C, 5% CO2). After incubation, the cells were washed with PBS, incubated with EMEM containing 2% FBS, and then cultured for 3 days as described above. After further removal of medium, the cells were digested, washed with PBS, and resuspended in FIX/PERM solution (Tonbo Biosciences, San Diego, CA, USA), followed by incubation at 4°C for 1 h in the dark. The cells were then sequentially incubated with mouse anti-flavivirus mAb 4G2 (2 μg/ml) at 37°C for 1 h and FITC-labeled anti-mouse IgG (0.5 mg/ml, BioLegend, San Diego, CA, USA) at 37°C for 30 min, followed by analysis using a FACScan flow cytometer and Summit software. Viral titers (infectious units/ml or infectious units/g) were calculated using the formula ((% of infected cells)×(total number of cells)×(dilution factor)/(amount of inoculum added to cells)).

[14] = Zika virus, Vero C1008, in Homo sapiens, read-out: IC50 against infection of ZIKV PAN2016, plaque assay, Vero E6 cells
[15] = read-out: IC50 against infection of ZIKV PAN2016, plaque assay, Vero E6 cells
[16] = Vero C1008, plaque assay, Vero E6 cells, mosquito strain, read-out: IC50 MEX 2-81
[17] = Vero C1008, plaque assay, Vero E6 cells, rhesus strain, read-out: IC50 MR 766
[18] = Vero C1008, plaque assay, Vero E6 cells, human strain, read-out: IC50 FLR
[19] = Vero C1008, plaque assay, Vero E6 cells, human strain, read-out: IC50 R103451
[20] = Vero C1008, plaque assay, Vero E6 cells, human strain, read-out: IC50 PRVABC59
[21] = Vero C1008, plaque assay, Vero E6 cells, human strain, read-out: IC50 PLCal_ZV
[22] = Vero C1008, plaque assay, Vero E6 cells, human strain, read-out: IC50 IbH 30656

Cc1cc2nc[nH]c2c(/N=C/c2c(O)c(O)c(C(C)C)c3cc(C)c(-c4c(C)cc5c(C(C)C)c(O)c(O)c(/C=N/c6c(C)c(C)cc7nc[nH]c67)c5c4O)c(O)c23)c1C [ST092971]
SI (CC50/IC50) [1]: 14.48 | IC50 [1, 14]: 5 µM | IC50 [1, 15]: 4.98 ± 0.01 µM | IC50 [2, 16]: 13.5 µM | IC50 [3, 17]: 5.2 µM | IC50 [4]: 8 µM | IC50 [5]: 5 µM | IC50 (ZIKV human strain FLR; [18]): 6.9 µM | IC50 [6, 19]: 6.6 µM | IC50 [7, 20]: 9.1 µM | IC50 [8, 21]: 6.7 µM | IC50 [9, 22]: 5.2 µM | IC50 [10]: 6.6 µM | CC50 at 3 days ([11]; CC50 Vero E6): 72.1 µM | CC50 (Vero E6 cells): 72.1 ± 1.91 µM

Cc1cc2c(c(O)c1-c1c(C)cc3c(c1O)/C(=C/NCc1cccnc1)C(=O)C(O)=C3C(C)C)/C(=C/NCc1cccnc1)C(=O)C(O)=C2C(C)C [ST005135]
SI (CC50/IC50) [1]: 2.97 | IC50 [1, 14]: 35 ± 2.86 µM | CC50 at 3 days ([11]; CC50 Vero E6): 104 ± 2.2 µM

Cc1cc2c(c(O)c1-c1c(C)cc3c(c1O)C(C=C1C(=O)NC(=O)NC1=O)C(=O)C(O)=C3C(C)C)C(C=C1C(=O)NC(=O)NC1=O)C(=O)C(O)=C2C(C)C (stereo not drawn) [ST004335]
SI (CC50/IC50) [1]: 2.7 | IC50 [1, 14]: 27.4 ± 2.5 µM | CC50 at 3 days ([11]; Vero E6 cells, CCK8, 3 days, read-out: CC50 Vero E6): 73.9 ± 1.68 µM

Cc1cc2c(C(C)C)c(O)c(O)c(/C=N/NC(=O)C(C)C)c2c(O)c1-c1c(C)cc2c(C(C)C)c(O)c(O)c(/C=N/NC(=O)C(C)C)c2c1O [ST086273]
SI (CC50/IC50) [1]: 10.23 | IC50 [1, 14]: 4.8 µM | IC50 [1, 15]: 4.93 ± 0.7 µM | IC50 [2, 16]: 2.8 µM | IC50 [3, 17]: 5.5 µM | IC50 [4]: 7.9 µM | IC50 [5]: 5 µM | IC50 (ZIKV human strain FLR; [18]): 4.2 µM | IC50 [6, 19]: 7 µM | IC50 [7, 20]: 4 µM | IC50 [8, 21]: 5.9 µM | IC50 [9, 22]: 5.4 µM | IC50 [10]: 5.5 µM | CC50 at 3 days ([11]; CC50 Vero E6): 50.5 µM | CC50 (Vero E6 cells): 50.5 ± 3.36 µM

Cc1cc2c(C(C)C)c(O)c(O)c(C=O)c2c(O)c1-c1c(C)cc2c(C(C)C)c(O)c(O)c(C=O)c2c1O [Gossypol, reference compound]
IC50 [1, 14]: 3.8 µM | IC50 [1, 15]: 3.78 ± 0.3 µM | IC50 ([2]; Vero C1008, read-out: IC50 MEX 2-81): 2.9 µM | IC50 ([3]; Vero C1008, read-out: IC50 MR 766): 4.1 µM | IC50 (ZIKV human strain FLR; Vero C1008, read-out: IC50 FLR): 0.7 µM | IC50 ([6]; Vero C1008, read-out: IC50 R103451): 3.1 µM | IC50 ([7]; Vero C1008, read-out: IC50 PRVABC59): 4.6 µM | IC50 ([8]; Vero C1008, read-out: IC50 PLCal_ZV): 2.9 µM | IC50 ([9]; Vero C1008, read-out: IC50 IbH 30656): 3.4 µM | IC50 [10]: 3.4 µM | CC50 at 3 days ([11]; CC50 Vero E6): 14.5 µM | CC50 (Vero E6 cells): 14.49 ± 0.07 µM | CC50 at 3 days (in vitro): 19.1 ± 1.09 µM | IC50 (DENV-1-V1792): 2.06 ± 0.13 µM | IC50 (DENV-2-V594): 1.91 ± 0.01 µM | IC50 (DENV-3-V1043): 3.42 ± 0.11 µM | IC50 (DENV-4-PR-06-65-740): 2.83 ± 0.07 µM | Mice protected from death (survival) ([12]; 20 mg/kg i.p. 12 h before and 6, 24, 48 h post-infection, observed 21 days): no mice treated with gossypol survived at 6 dpi | Weight loss ([12]; 20 mg/kg i.p., ST087010 figure during 6–12 dpi): increased weight loss | Viral titers in the heart, kidney, and brain [13]: significantly higher | DENV-2 in brain, percentage of infected cells (DENV-2 human strain V594): 3.6% | DENV-2 in heart, percentage of infected cells (DENV-2 human strain V594): 3.8% | DENV-2 in kidney, percentage of infected cells (DENV-2 human strain V594): 4.1% | DENV-2 in sera, percentage of infected cells (DENV-2 human strain V594): 50.9%

From paper PMC9202104 (BMC Biology, 2022)
